Results taken from patent US20230107941A1, “HEPATITIS B CAPSID ASSEMBLY MODULATORS” (Venatorx Pharmaceuticals, Inc., priority 2019, published 2023).

Experiments:
HBV = experiment: In vitro antiviral assay: anti-HBV replication in HepAD38 cells (extracellular HBV DNA by QPCR); format: cell-based, hepatitis B virus (genotype D, serotype ayw); details: Hepatitis B virus, HePAD38, 168 h, 7 days incubation, extracellular HBV DNA by QPCR, read-out: Anti-HBV EC50
Summary of the method: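 Read-out is extracellular HBV DNA (copies/mL, QPCR standard curve) after 7-day exposure of tet-free HepAD38 cells to 10-fold dilutions from 1 μM down to 10 pM. Values normalised to DMSO vehicle; EC50 from 4-parameter nonlinear regression, with entecavir validating each run.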

[1] = In vitro cytotoxicity assay (MTT cell viability) in HepG2 cells; format: cell-based, human; details: human
Summary of the method: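 CC50 was derived by 4-parameter fit of viability relative to vehicle controls, measured as MTT formazan absorbance at 492 nm after 3–4 h of reagent and DMSO solubilization. Before that, HepG2 cells seeded overnight at 20,000/well were incubated 7 days at 37°C with compound from 30 μM down to 1.0 nM in half-log steps.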

Row | SMILES | EC50 (HBV) [µM] | CC50 at 7 days [1] [µM]
1 | Cc1cc(NC(=O)c2c(C)c(C(=O)C(=O)NCC(C)(C)O)n(C)c2C2CCCCC2)ccc1F [Example 120, 2-cyclohexyl-N-(4-fluoro-3-methylphenyl)-5-(2-((2-hydroxy-2-methylpropyl)amino)-2-oxoacetyl)-1,4-dimethyl-1H-pyrrole-3-carboxamide] | > 1 | > 30
2 | CC(=O)N1CC[C@@H](NC(=O)C(=O)c2c(C)c(C(=O)Nc3ccc(F)c(C)c3)c(C)n2C)C(C)(C)C1 [Example 149, (R)-5-(2-((1-acetyl-3,3-dimethylpiperidin-4-yl)amino)-2-oxoacetyl)-N-(4-fluoro-3-methylphenyl)-1,2,4-trimethyl-1H-pyrrole-3-carboxamide] | < 0.05 | > 30
3 | Cc1cc(NC(=O)c2c(C)c(C(=O)C(=O)N[C@H]3CC[C@@H](O)CC3)n(C)c2C(C)C)ccc1F [Example 112, N-(4-fluoro-3-methylphenyl)-5-(2-(((1s,4s)-4-hydroxycyclohexyl)amino)-2-oxoacetyl)-2-isopropyl-1,4-dimethyl-1H-pyrrole-3-carboxamide] | 0.05 to 0.499 | > 30
4 | CCc1c(C(=O)Nc2ccc(F)c(C)c2)c(C)n(C)c1C(=O)C(=O)NCC(C)(C)O [Example 88, 4-ethyl-N-(4-fluoro-3-methylphenyl)-5-(2-((2-hydroxy-2-methylpropyl)amino)-2-oxoacetyl)-1,2-dimethyl-1H-pyrrole-3-carboxamide] | 0.5 to 1 | > 30
5 | Cc1cc(NC(=O)c2c(C3CC3)c(C(=O)C(=O)N[C@H](C)C(F)(F)F)n(C)c2C)ccc1F [Example 101, (R)-4-cyclopropyl-N-(4-fluoro-3-methylphenyl)-1,2-dimethyl-5-(2-oxo-2-((1,1,1-trifluoropropan-2-yl)amino)acetyl)-1H-pyrrole-3-carboxamide] | < 0.05 | > 30
6 | Cc1cc(NC(=O)c2c(C)c(C(=O)C(=O)N[C@]3(C4CC4)CC[C@H](O)CC3)n(C)c2C)ccc1F [Example 6, 5-(2-(((1s,4s)-1-cyclopropyl-4-hydroxycyclohexyl)amino)-2-oxoacetyl)-N-(4-fluoro-3-methylphenyl)-1,2,4-trimethyl-1H-pyrrole-3-carboxamide] | < 0.05 | > 30
7 | Cc1cc(NC(=O)c2c(C)c(C(=O)C(=O)N[C@H]3CCCC(F)(F)[C@@H]3O)n(C)c2C)ccc1F [Example 13, 5-(2-(((1S,2R)-3,3-difluoro-2-hydroxycyclohexyl)amino)-2-oxoacetyl)-N-(4-fluoro-3-methylphenyl)-1,2,4-trimethyl-1H-pyrrole-3-carboxamide] | < 0.05 | > 30
8 | Cc1cc(NC(=O)c2c(C)c(C(=O)C(=O)N[C@H]3CC[C@@H](S(C)(=O)=O)CC3)n(C)c2-c2nccs2)ccc1F [Example 175, N-(4-fluoro-3-methylphenyl)-1,4-dimethyl-5-(2-(((1s,4s)-4-(methylsulfonyl)cyclohexyl)amino)-2-oxoacetyl)-2-(thiazol-2-yl)-1H-pyrrole-3-carboxamide] | > 1 | > 30
9 | Cc1cc(NC(=O)c2c(C)c(C(=O)C(=O)N[C@]3(C)C[C@H](O)C3)n(C)c2C2CC2)ccc1F [Example 128, 2-cyclopropyl-N-(4-fluoro-3-methylphenyl)-5-(2-(((1s,3s)-3-hydroxy-1-methylcyclobutyl)amino)-2-oxoacetyl)-1,4-dimethyl-1H-pyrrole-3-carboxamide] | < 0.05 | > 30
10 | Cc1cc(NC(=O)c2c(C)c(C(=O)C(=O)NC3CCc4nnn(C)c4C3)n(C)c2C)ccc1F (centres unmarked) [Example 85, N-(4-fluoro-3-methylphenyl)-1,2,4-trimethyl-5-(2-((1-methyl-4,5,6,7-tetrahydro-1H-benzo[d][1,2,3]triazol-6-yl)amino)-2-oxoacetyl)-1H-pyrrole-3-carboxamide] | < 0.05 | > 30
